Experiments:
[1] = Cytotoxicity against human RD cells assessed as reduction in cell viability incubated for 24 hrs by MTT assay; conditions: RD cells
[2] = Inhibition of capsid protein VP1 in Enterovirus 71 (FY)-Luc infected in human RD cells assessed as reduction in virus-induced cell death preincubated for 24 hrs followed by […] substrate addition and measured after 5 mins by chemiluminescence analysis; assay type: cell-based, Enterovirus A71; conditions: Enterovirus A
[3] = Acute toxicity in juvenile zebrafish assessed as fatality rate at 200 uM after 24 hrs; conditions: in vivo
[4] = in vivo; conditions: zebrafish
Description: Acute toxicity in juvenile zebrafish assessed as fatality rate at 150 uM after 24 hrs

[5] = Acute toxicity in juvenile zebrafish assessed as fatality rate at 20 uM after 48 hrs; conditions: in vivo
[6] = Acute toxicity in juvenile zebrafish assessed as fatality rate at 200 uM after 48 hrs; conditions: in vivo
[7] = Acute toxicity in juvenile zebrafish assessed as fatality rate at 100 uM after 48 hrs; conditions: in vivo
[8] = Acute toxicity in juvenile zebrafish assessed as fatality rate at 100 uM after 24 hrs; conditions: in vivo
[9] = Acute toxicity in juvenile zebrafish assessed as fatality rate at 50 uM after 24 hrs; conditions: in vivo
[10] = Acute toxicity in juvenile zebrafish assessed as fatality rate at 50 uM after 48 hrs; conditions: in vivo
[11] = in vivo; conditions: zebrafish; remark: listed apart in the source
Description: Acute toxicity in juvenile zebrafish assessed as fatality rate at 150 uM after 48 hrs

[12] = Acute toxicity in juvenile zebrafish assessed as fatality rate at 20 uM after 24 hrs; conditions: in vivo
[13] = Acute toxicity in juvenile zebrafish assessed as pericarditis at 100 uM after 24 hrs; design: species or system Danio rerio; conditions: in vivo

Row | Structure (SMILES) | CC50 at 24 h [1] [µM] | EC50 [2] [nM] | mortality at 24 h, 200 µM [3] [%] | mortality at 24 h, 150 µM [4] [%] | mortality at 48 h, 20 µM [5] [%] | mortality at 48 h, 200 µM [6] [%] | mortality at 48 h, 100 µM [7] [%] | mortality at 24 h, 100 µM [8] [%] | mortality at 24 h, 50 µM [9] [%] | mortality at 48 h, 50 µM [10] [%] | mortality at 48 h, 150 µM [11] [%] | mortality at 24 h, 20 µM [12] [%] | Activity [13]
1 | CCc1nc(-c2cc(C)c(OCCC(C)CCN3CCN(c4ccnc(N)c4)C3=O)c(C)c2)no1 (stereo not given) | 15.7 | > 25 |  |  |  |  |  |  |  |  |  |  | 
2 | CCO/N=C/c1ccc(OCCC(C)CCN2CCN(c3ccnc(O)c3)C2=O)cc1 (stereo not given) | > 100 | > 25 |  |  |  |  |  |  |  |  |  |  | 
3 | CCO/N=C/c1ccc(OCCC(C)CCN2CCN(c3cccc(N)c3)C2=O)cc1 (stereo not given) | > 100 | > 25 |  |  |  |  |  |  |  |  |  |  | 
4 | CCc1nc(-c2ccc(OCCC(C)CCN3CCN(c4ccnc(N)c4)C3=O)cc2)no1 (stereo not given) | > 100 | 0.0084 | 100 | 80 | 60 | 100 | 100 | 30 | 10 | 100 | 100 | 40 | 
5 | CCO/N=C/c1ccc(OCCC(C)CCN2CCN(c3ccccc3)C2=O)cc1 (stereo not given) | > 100 | 1.12 | 100 | 100 | 100 | 100 | 100 | 100 | 100 | 100 | 100 | 100 | 
6 | CCO/N=C/c1cc(C)c(OCCC(C)CCN2CCN(c3ccnc(N)c3)C2=O)c(C)c1 (stereo not given) | 12.8 | > 25 |  |  |  |  |  |  |  |  |  |  | 
7 | CC(CCOc1ccc(/C=N/O)cc1)CCN1CCN(c2ccnc(N)c2)C1=O (stereo not given) | > 100 | > 25 |  |  |  |  |  |  |  |  |  |  | 
8 | CCCc1nc(-c2ccc(OCCC(C)CCN3CCN(c4ccnc(N)c4)C3=O)cc2)no1 (stereo not given) | > 100 | 0.15 | 100 | 100 | 60 | 100 | 100 | 100 | 100 | 100 | 100 | 40 | 
9 | CC(CCOc1ccc(-c2noc(C(F)(F)F)n2)cc1)CCN1CCN(c2ccnc(N)c2)C1=O (stereo not given) | 48.1 | 0.537 | 100 | 80 | 0 | 100 | 100 | 70 | 30 | 50 | 100 | 0 | 
10 | CC(=O)Nc1cc(N2CCN(CCCCCOc3ccc(-c4noc(C)n4)cc3)C2=O)ccn1 | > 100 | > 25 |  |  |  |  |  |  |  |  |  |  | 
11 | CC(CCN1CCN(Cc2ccccc2)CC1)CCN1CCN(c2ccnc(N)c2)C1=O (stereo not given) | > 100 | > 25 |  |  |  |  |  |  |  |  |  |  | 
12 | CCONCc1ccc(OCCC(C)CCN2CCN(c3ccnc(N)c3)C2=O)cc1 (stereo not given) | 7.37 | 0.0119 |  |  |  |  |  |  |  |  |  |  | 
13 | CCO/N=C/c1ccc(OCCCCCN2CCN(c3ccnc(N)c3)C2=O)cc1 | 59 | 0.072 | 100 | 100 | 20 | 100 | 100 | 100 | 0 | 100 | 100 | 20 | 
14 | CCCc1nc(-c2cc(C)c(OCCC(C)CCN3CCN(c4ccnc(N)c4)C3=O)c(C)c2)no1 (stereo not given) | 14.1 | > 25 |  |  |  |  |  |  |  |  |  |  | 
15 | Cc1cc(-c2noc(C(F)(F)F)n2)cc(C)c1OCCC(C)CCN1CCN(c2ccnc(N)c2)C1=O (stereo not given) | > 100 | > 25 |  |  |  |  |  |  |  |  |  |  | 
16 | CCO/N=C/c1ccc(OCCC(C)CCN2CCN(c3ccnc(OC)c3)C2=O)cc1 (stereo not given) | > 100 | 10 | 100 | 100 | 100 | 100 | 100 | 100 | 100 | 100 | 100 | 100 | 
17 | CCO/N=C/c1ccc(OCC#CCN2CCN(c3ccnc(N)c3)C2=O)cc1 | > 100 | > 25 |  |  |  |  |  |  |  |  |  |  | 
18 | Cc1nc(-c2ccc(OCCC(C)CCN3CCN(c4ccnc(N)c4)C3=O)cc2)no1 (stereo not given) | 66.1 | 0.0061 | 100 | 10 | 0 | 100 | 100 | 0 | 0 | 0 | 100 | 0 | 
19 | CCO/N=C/c1ccc(OCCCCN2CCN(c3ccnc(N)c3)C2=O)cc1 | > 100 | > 25 |  |  |  |  |  |  |  |  |  |  | 
20 | CC(CCOc1ccc(-c2noc(C(C)(C)C)n2)cc1)CCN1CCN(c2ccnc(N)c2)C1=O (stereo not given) | 55 | 0.0092 | 100 | 100 | 0 | 100 | 100 | 80 | 0 | 0 | 100 | 0 | Toxic
21 | Cc1nc(-c2cc(C)c(OCCC(C)CCN3CCN(c4ccnc(N)c4)C3=O)c(C)c2)no1 (stereo not given) | 28.8 | > 25 |  |  |  |  |  |  |  |  |  |  | 
22 | CCONC(=O)c1ccc(OCCC(C)CCN2CCN(c3ccnc(N)c3)C2=O)cc1 (stereo not given) | > 100 | > 25 |  |  |  |  |  |  |  |  |  |  | 
